Data set [1] relates to tau. Kind of data set: Western blot of tau levels in HeLa cells stably overexpressing tau (HeLa-C3). It is filed as cell-based. Conditions: for tau levels, effect of chirality: HeLa-C3, similar concentrations of enriched and racemic myricanol. As to the method:
(§1) HeLa cells stably expressing VS-tagged 4R0N tau were maintained under G418 selection in Opti-Mem plus 10% FBS (complete media; Invitrogen) as previously described (Jinwal et al. (2009) J Neurosci 29, 12079-12088). IMR32 cells were maintained in Opti-mem plus 10% FBS and 2% 200 mM L-glutamine (Cellgro, Mediatech, Inc, Herndon, Va.). IMR32, M17, and H4 cells were maintained in Opti-mem plus 10% FBS and 2% 200 mM L-glutamine (Cellgro, Mediatech, Inc., Herndon, Va.). All cells were treated as indicated and harvested as previously described (Jinwal et al. (2009) J Neurosci 29, 12079-12088).
(§2) Protein levels were determined by using the Peirce BCA kit. Western blotting was performed by running SDS-PAGE, followed by transfer onto Immobilon-P (Millipore), as previously described (Dickey et al. (2005) Curr Alzheimer Res 2, 231-23; Koren et al. (2010) J. Bio. Chem. 285, 2498-2505).
(§3) To assess the effects of the aqueous bayberry extract on overexpressed and endogenous tau levels, a HeLa cell line stably transfected with tau (HeLa-C3) and a human IMR32 cell line derived from hippocampal neurons were treated with the bayberry extract at indicated doses for four hours. The hippocampus is the region first affected by tau deposition in Alzheimer's disease.
Briefly, the EtOH extract was subjected to acid hydrolysis to enrich the aglycone component of the extract, and was then fractionated via medium pressure liquid chromatography (MPLC). The bayberry crude extract was separated into 8 UV-active fractions by MPLC) (FIG. 4A). The MPLC extraction method was designed to identify UV active flavonoids such as myricetin).
To investigate the effect of chirality on anti-tau activity, HaLa-C3 cells were treated with the isolated (+)-αR,11S-myricanol (86% ee) and commercially available “racemic” myricanol (actually 9% ee) at the indicated concentrations.

The subject of data set [2] is tau. Kind of data set: Ex-vivo murine brain slice cultures, Western blot of tau levels. It is filed as cell-based, mice. Conditions: murine brain slices. Here is the method:
HeLa cells stably overexpressing tau (HeLa-C3; FIG. 2A) and IMR32 cells with endogenous tau levels (FIG. 2B) were treated for 4 hrs with aqueous bayberry extract at 0, 21, 35, 70 μg/ml (0, 0.3, 0.5, and 1.0% by volume). […] Tau levels are shown as a percentage of vehicle-treated cells ±SD. […] Treatments on whole brain murine slice cultures were performed in duplicate at doses of 0, 9, 18, 35, 70, 105, 140 μg/ml (0, 0.125, 0.25, 0.5, 1.0, and 2.0% by volume) of the bayberry extract. Each point in the graph (FIG. 2E) to the right represents the average tau reductions (n=8 slices) for all four mice at the given doses relative to the average vehicle ±SD. *p<0.05 by student's t test.
4 non-transgenic 5-month-old mice were decapitated and their brains were quickly removed. 400 μm coronal sections were made using a vibratome as previously described (Jinwal et al. J. Neurosci. 2009, 29, 12079-12088; Qiu et al. J. Neurosci. 2006, 26, 12943-12955; Mirnikjoo et al. J. Biol. Chem. 2001, 276, 10888-10896. NP100572Z). […]

The test system of data set [3] is tau. Kind of data set: Western blot of endogenous tau levels in IMR32 cells. It is filed as cell-based, human. Conditions: IMR32 hippocampus-derived cells. As to the method:
as §1, §2, §3

A short description of data set [4]: Lactate dehydrogenase release assay for myricanol. It is filed as cell-based.
Data set [5] concerns Hsp70 ATPase. Conditions: previously shown; cited from earlier work.

For `COc1c2cc(c(O)c1OC)CCCC[C@H](O)CCc1ccc(O)c-2c1` [(+)-αR,11S-myricanol], the EC50 in data set [1] (HeLa-C3, Western blot, read-out: EC50 for reduction of tau levels) turned out to be 35 µM. Moreover, the “reduction of tau levels” value was “potently reduced tau levels” in data set [1] (HeLa-C3, overexpressed tau); “potently reduced tau levels” in data set [2]; “potently reduced tau levels” in data set [3]. Further, the “tau levels, effect of chirality” value in data set [1] was “reduced significantly”.

On to `COc1c2cc(c(O)c1OC)CCCC[C@@H](O)CCc1ccc(O)c-2c1` [myricanol], for which, in data set [4], the “toxicity by lactate dehydrogenase release” value is recorded as “little toxicity”. In addition, the “tau reduction after pre-treatment with autophagy inhibitor” value in data set [1] (HeLa-C3, NH4Cl 20 mM pre-treatment) was “abrogated tau reductions”. Also, the “tau reduction after pre-treatment with proteasomal inhibitor” value in data set [1] (HeLa-C3, epoxomicin 0.3 μM pre-treatment) is recorded as “abrogated tau reductions”. In data set [1] (comparison stated in the description), the “reduction of intracellular tau levels compared with myricetin” value was “more effectively reduces intracellular tau levels than myricetin”.

For `O=c1c(O)c(-c2cc(O)c(O)c(O)c2)oc2cc(O)cc(O)c12` [myricetin], the “inhibition of Hsp70 ATPase activity” value in data set [5] is reported as “inhibitor of Hsp70 ATPase activity”.

Regarding `COc1c2cc(c(O)c1OC)CCCC[C@@H](O)CCc1ccc(O)c-2c1` (racemic) [(+/−)-myricanol, reference compound], the “tau levels, effect of chirality” value in data set [1] is “no activity”.

(Values after patent publication US9206103B2, “Materials and methods for reduction of protein tau and treatment of neurodegenerative diseases” (UNIVERSITY OF SOUTH FLORIDA, priority 2010, dated 2015).)
